Data from US20100082097A1, “Article Containing Segregated Biguanide and Lewis Acid” (priority 2008, published 2010).

Experiments:
Assay type in all cases: physicochemical
[1] = GV stability in polyurethane films containing no CHA (HPLC)
From the text: (§1) A high pressure liquid chromatography (HPLC) analytical method was developed to quantify Gentian violet and chlorhexidine. Both compounds have ultraviolet or visible wavelength absorbance, and so were characterized using a UV-Vis diode array detector. Chlorhexidine and Gentian violet are identified by retention times versus a set of external standards. The external standards also form a calibration curve that is used to quantify the chlorhexidine and Gentian violet content in samples. The method is summarized as follows:
(§2) The sample preparation method, prior to HPLC analysis, is summarized as follows: samples were placed in centrifuge tubes, to which a volume of tetrahydrofuran (THF) was added (according to cited protocols or per examples). The tubes were vortexed until the sample was completely dissolved. For samples used as medical device coatings where a polymer was also present, a volume of deionized water was then added and the tubes were again vortexed for 10 minutes to precipitate the any polymer in the sample. The tubes were then centrifuged for 10 minutes at 4000 RPM to spin the polymer down out of the solution. A small amount of supernatant was transferred to an HPLC vial for analysis.
Polyurethane films, used in the studies described in examples 4-6 and 9-11, were prepared as follows: 500 g of coating solution was prepared by dissolving 3.74% (w/w) Tecoflex 93A resin and 1.17% (w/w) Tecoflex 60D resin in a 74/26% mixture of THF/Methanol. The mixture was stirred until all of the resin was completely dissolved. 3.07% (w/w) chlorhexidine diacetate (CHA) was then added to the coating solution. Solutions containing different concentrations of GV were made by adding 0.1, 0.2, 0.4, 0.6, 0.8 or 1.0% (w/w) GV to 50 g aliquots of the CHA containing coating solution (or resin only solution in the case of GV only coating solution). 0.5 g of the CHA only, GV only, or 0.1-1.0% GV/CHA solutions was added to the bottom of a 30 mL glass vial and allowed to dry under ambient conditions overnight to evaporate the solvent and cast films in the vials. Vacuum dried samples were prepared by further drying the film containing vials at 25° C. under 30 in, Hg for 48 hours. Humidified samples were prepared by adding 75 μL of deionized water to the air dried samples and capping for the duration of the studies.
Gentian violet only films were prepared according to example 2. Half of the vials were then spiked with 75 μL of deionized water and capped to create a 100% humidity environment, while the other half were vacuum dried ([…]) at 25° C. for 48 hours. The vials were then incubated in an oven at 25° C., 35° C., 45° C., and 55° C. for 20 days.
Samples were analyzed post air drying and post 20 day incubation. Sample analysis was performed using the method in Example 1.
Peak area ratios for pararosaniline chlorides are shown in Table 3 at different temperatures for 20 days. The peak area ratios for each temperature are calculated as follows: (Individual peak area)/Σ(individual peak)×100%. The variations are within the limits of experimental error further confirming the stability of GV in polyurethane films containing only GV.

[2] = CHA stability in polyurethane films after ethylene oxide (ETO) sterilization; details: polyurethane films containing only CHA
Experimental: (§3) Degradation is reported in the following examples as measured by HPLC as peak area of the degradant peak divided by the total peak area of the chlorhexidine peak and the degradant peak (i.e. Peak Areadegradant/[Peak Areadegradant+Peak Areachlorhexidine]*100). The peak areas are determined from integration of chromatograms.
as §1
as §2, with “The tubes were then centrifuged for 10 minutes at 4000 RPM to spin the polymer down out of the solution. A small amount of supernatant was transferred to an HPLC vial for analysis.” left out

[3] = Brilliant Green-Chlorhexidine formulation in DMF/THF solvent mixture, observation of solution; details: 40/60 THF/DMF, with BG, room temperature
Experimental: In this experiment 40/60 THF/DMF solvent mixture was used instead of THF/Methanol from Example 17. Different Brilliant green (BG) concentrations (0.1 wt %-1.0 wt %) were added per the Table 5 below to an aliquot of the polymer-CHA solution (in Example 17) and stirred until Brilliant Green dissolved: […]

[4] = CHA stability in polyurethane films containing no GV (HPLC); details: vacuum dried and humidified films, 25, 35, 45, 55° C., 20 day incubation
Experimental: as §3, §1
The sample preparation method, prior to HPLC analysis, is summarized as follows: samples were placed in centrifuge tubes, to which a volume of tetrahydrofuran (THF) was added (according to cited protocols or per examples). The tubes were vortexed until the sample was completely dissolved. […]
Samples were analyzed post air drying and post 20 day incubation. […]

[5] = Brilliant Green-Chlorhexidine formulation in THF/Methanol solvent mixture, observation of solution; details: with BG, room temperature
Experimental: 1.04 g Tecoflex 60D and 3.28 g Tecoflex 93A in 65 g were added in a glass jar containing 65 g of Tetrahydrofuran and stirred for four (4) hours at 45° C. Once all resin solids have dissolved, 23 g methanol added into the mixture and stirred for one (1) hour. 2.939 g chlorhexidine diacetate (CHA) was added into the solution mixture and stirred overnight at room temperature. Different Brilliant green (BG) concentrations (0.1 wt %-1.0 wt %) were added per the Table 4 below to an aliquot of the polymer-CHA solution and stirred until Brilliant Green dissolved:
Table 5 below lists different formulations of BG and CHA.

| Peak area ratio for pararosaniline chlorides ([1]; 0 day control) [%] | Peak area ratio for pararosaniline chlorides ([1]; 25° C. at day 20) [%] | Peak area ratio for pararosaniline chlorides ([1]; 35° C. at day 20) [%] | Peak area ratio for pararosaniline chlorides ([1]; 45° C. at day 20) [%] | Peak area ratio for pararosaniline chlorides ([1]; 55° C. at day 20) [%] | stability when ETO sterilized [2] | stirring time after which chlorhexidine diacetate precipitated [3] [min] | degradation peaks in the chromatograms [4] | stirring time after which chlorhexidine diacetate precipitated [5] [min] | degradation products detected in the chromatograms ([1]; vacuum dried and humidified GV only films, 25-55° C., 20 days) | SMILES |
| --- | --- | --- | --- | --- | --- | --- | --- | --- | --- | --- |
| 42 | 43 | 44 | 42 | 45 |  |  |  |  |  | CN(C)c1ccc(C(=C2C=CC(=[N+](C)C)C=C2)c2ccc(N(C)C)cc2)cc1.[Cl-] [Hexamethyl, hexamethylpararosaniline chloride] |
|  |  |  |  |  | stable when sterilized | 30 | no degradation peaks | 30 |  | CC(=O)O.CC(=O)O.NC(=N\CCCCCC/N=C(N)/N=C(\N)Nc1ccc(Cl)cc1)/N=C(\N)Nc1ccc(Cl)cc1 [CHA, chlorhexidine diacetate] |
| 14 | 14 | 13 | 14 | 12 |  |  |  |  |  | CN(C)c1ccc(C(=C2C=CC(=[N+](C)C)C=C2)c2ccc(N)cc2)cc1.[Cl-] [Tetramethyl, tetramethylpararosaniline chloride] |
|  |  |  |  |  |  |  |  |  | no degradation products were detected | CN(C)c1ccc(C(=C2C=CC(=[N+](C)C)C=C2)c2ccc(N(C)C)cc2)cc1 [GV, hexa-methyl pararosaniline chloride, reference compound] |
| 44 | 43 | 43 | 44 | 43 |  |  |  |  |  | CN=C1C=CC(=C(c2ccc(N(C)C)cc2)c2ccc(N(C)C)cc2)C=C1.Cl [Pentamethyl, pentamethylpararosaniline chloride] |
